# From patent publication US8106072B2, “7- (4-substituted-3-cyclopropylaminomethyl-1-pyrrolidinyl) quinolonecarboxylic acid derivative” (Kyorin Pharmaceutical Co., Ltd., priority 2003, dated 2012)
# Columns and labels:
# Test in all cases: In vitro antibacterial activity (MIC, agar plate dilution)
# Type in all cases: cell-based
# S. pneumoniae Type III = conditions: Streptococcus pneumoniae, Muller-Hinton agar supplemented with 5% defibrinated horse blood
# Procedure: (§1) The in-vitro antibacterial activity of the compound of the present invention, as measured by the minimum inhibitory concentration (MIC), was determined by the agar plate dilution technique using Mueller-Hinton agar medium. The technique met the criteria specified by the National Committee for Clinical Laboratory Standard (1997) [NCCLS. Methods for Dilution Antibacterial Susceptibility Tests for Bacteria that grow Aerobically—Forth Edition: Approved Standard m7-A4. NCCLS, Villanova, Pa.]. For Streptococcus pneumonia and Enterococcus, the MIC values were determined by using Muller-Hinton agar supplemented with 5% defibrinated horse blood.
# S. aureus MS16401 = conditions: Staphylococcus aureus, S. aureus MS16401 (quinolone-resistant S. aureus), Mueller-Hinton agar
# Procedure: as §1
# S. aureus Smith = conditions: Staphylococcus aureus, Mueller-Hinton agar
# Procedure: as §1
# E. faecalis IID682 = conditions: Enterococcus faecalis, Muller-Hinton agar supplemented with 5% defibrinated horse blood
# Procedure: as §1
# S. aureus MR5867 = conditions: Staphylococcus aureus, S. aureus MR5867 (methicillin-resistant S. aureus), Mueller-Hinton agar
# Procedure: as §1
SMILES,MIC (S. pneumoniae Type III) [µg/mL],MIC (S. aureus MS16401) [µg/mL],MIC (S. aureus Smith) [µg/mL],MIC (E. faecalis IID682) [µg/mL],MIC (S. aureus MR5867) [µg/mL]
"COc1c(N2C[C@@H](CNC3CC3)[C@H](C)C2)c(F)cc2c(=O)c(C(=O)O)cn(C3CC3)c12 (relative stereo) [Example 5, 1-cyclopropyl-7-(trans-3-cyclopropylaminomethyl-4-methyl-1-pyrrolidinyl)-6-fluoro-1,4-dihydro-8-methoxy-4-oxo-3-quinolinecarboxylic acid]",31,16,8,125,8
"O=C(O)c1cn(C2CC2)c2c(OC(F)F)c(N3C[C@H](CNC4CC4)[C@H](F)C3)c(F)cc2c1=O [Example 3, 1-cyclopropyl-7-[(3S,4S)-3-cyclopropylaminomethyl-4-fluoro-1-pyrrolidinyl]-6-fluoro-8-difluoromethoxy-1,4-dihydro-4-oxo-3-quinolinecarboxylic acid]",16,8,8,125,8
"COc1c(N2C[C@H](CNC3CC3)[C@@H](F)C2)c(F)cc2c(=O)c(C(=O)O)cn(C3CC3)c12 [Example 9, 1-cyclopropyl-7-[(3S,4R)-3-cyclopropylaminomethyl-4-fluoro-1-pyrrolidinyl]-6-fluoro-1,4-dihydro-8-methoxy-4-oxo-3-quinolinecarboxylic acid]",≤ 8,16,≤ 8,63,≤ 8
"COc1c(N2C[C@@H](CNC3CC3)[C@H](C(F)(F)F)C2)c(F)cc2c(=O)c(C(=O)O)cn(C3CC3)c12 (relative stereo) [Example 6, 1-cyclopropyl-7-(trans-3-cyclopropylaminomethyl-4-trifluoromethyl-1-pyrrolidinyl)-6-fluoro-1,4-dihydro-8-methoxy-4-oxo-3-quinolinecarboxylic acid]",63,63,31,250,8
"COc1c(N2C[C@H](CNC3CC3)[C@H](F)C2)c(F)cc2c(=O)c(C(=O)O)cn(C3CC3)c12 [Example 1, 1-cyclopropyl-7-[(3S,4S)-3-cyclopropylaminomethyl-4-fluoro-1-pyrrolidinyl]-6-fluoro-1,4-dihydro-8-methoxy-4-oxo-3-quinolinecarboxylic acid]",≤ 8,4,8,63,8
"COc1c(N2C[C@@H](CNC3CC3)[C@H](C)C2)ccc2c(=O)c(C(=O)O)cn(C3CC3)c12 [Example 8, 1-cyclopropyl-7-[(3R,4S)-3-cyclopropylaminomethyl-4-methyl-1-pyrrolidinyl]-1,4-dihydro-8-methoxy-4-oxo-3-quinolinecarboxylic acid]",125,63,31,500,31
"COc1c(N2C[C@H](CNC3CC3)[C@H](F)C2)ccc2c(=O)c(C(=O)O)cn(C3CC3)c12 [Example 2, 1-cyclopropyl-7-[(3S,4S)-3-cyclopropylaminomethyl-4-fluoro-1-pyrrolidinyl]-1,4-dihydro-8-methoxy-4-oxo-3-quinolinecarboxylic acid]",31,31,8,125,16
"COc1c(N2C[C@H](CNC3CC3)[C@@H](C)C2)ccc2c(=O)c(C(=O)O)cn(C3CC3)c12 [Example 7, 1-cyclopropyl-7-[(3S,4R)-3-cyclopropylaminomethyl-4-methyl-1-pyrrolidinyl]-1,4-dihydro-8-methoxy-4-oxo-3-quinolinecarboxylic acid]",63,125,31,250,63
"O=C(O)c1cn(C2CC2)c2c(OC(F)F)c(N3C[C@H](CNC4CC4)[C@H](F)C3)ccc2c1=O [Example 4, 1-cyclopropyl-7-[(3S,4S)-3-cyclopropylaminomethyl-4-fluoro-1-pyrrolidinyl]-8-difluoromethoxy-1,4-dihydro-4-oxo-3-quinolinecarboxylic acid]",63,63,16,500,31
